The subject of assay [1] is Plasmodium falciparum D6 strain. Nature of the assay: in vitro anti-malarial activity, [3H]-ethanolamine incorporation method. The format is cell-based. How it is done:
Cultures were maintained at 37° C. in a gas mixture of 5% oxygen, 5% CO2, and 90% nitrogen.
[^3H]-ethanolamine was obtained from American Radiolabeled Chemicals, Inc., St. Louis, Mo. Experiments were conducted in 96 well plates in a total volume of 200 μl at a final red blood cell concentration of 2% (v/v). An initial parasitemia of 0.2 to 0.5% was attained by addition of normal uninfected red cells. Radiolabeled ethanolamine was added after 48 hours of incubation and the experiment was terminated after 72 hours by collecting the cells onto glass fiber filters with an automated multiwell harvester.
Stock solutions of the various Formula X1 compounds were dissolved in DMSO at a concentration of 1 mM and diluted in complete medium (including 10% human serum) to provide 10X stock concentrations in the range of 1 to 10,000 nM.

A short description of assay [2]: in vitro heme aggregation (polymerization) assay. Conditions: for inhibitory activity in heme polymerization assay: result in words. The format is biochemical. As for the experimental part: Heme polymerization was carried out in 0.02 M phosphate buffer, pH 5.2 at 37° C. in the absence of protenis. A 10 mM stock solution of hemin chloride in 0.1 M NaOH wa prepared freshly and incuated at 37° C. for at least 1 hour to effect complete dissolution. Xanthones were dissolved in dimethylformamide at 10 mM and diluted into 10 ml of pre-warmed phosphate solution to a final concentraion of 25 μm. […] 25 μl of dimethylformaide wa added to the control smample. After 7, 30, 60, 120 and 190 minutes of incugation at 37° C., a 1 ml aliquot was withdraqwn, tranferred into an Eppendorf tube, and centrifugted at 14,000 g for 2 minutes at room temperature to pellet the precipitate. The soluble fraction was then transferred to a semi-microcuvette (polymethyacrylate, VER), and its absoprtion was measured at 360 nm against a blank of the test compound in buffer.
The reactions were allowed to proceed for 2 hours in a 37° C. waterbath. After incubation, the polymer was pelleted as described above and the absorption (360 nm) of each soluble fraction was measured against a blank containing the drug alone in buffer. The IC50 values were determined by nonlinear regression analysis of the dose-response curves of percent inhibition of heme polymerization vs. drug concentration.

A further assay concerns Candida albicans. Put plainly: anti-Candida activity, MIC by visual inspection. The format is cell-based. To be noted: conversion of the MIC, read-out: IC50 corresponding to the MIC against Candida albicans. As for the experimental part: The minimum inhibitory concentration (MIC) of formula X1 compounds against a clinical isolate of Candida albicans was determined using the following method. […] The determination of this concentration is made by visual inspection; there is no visible growth in a tube containing the MIC of the formula X1 compound whereas visible growth is present in tubes containing sub-MIC concentrations of the compound.
Candida albicans was grown to midlog-phase in Luria-Bertani broth (10 grams Bacto-tryptone, 5 grams Bacto-yeast extract and 10 grams NaCl per liter) and then inoculated into sterile test tubes containing LB broth to an initial density of 10^3/ml. The formula X1 compound to be tested is dissolved in dimethylsulfoxide (DMSO) at a concentration of 1 mM and added to each tube at serial dilutions (1 μM, 10 μM, 25 μM, 50 μM, 100 μM and 0 μM). The tubes are incubated at 35° C. for 15-18 hours and then visually inspected.

The test system of assay [3] is intracellular amastigotes of Leishmania mexicana M379. Nature of the assay: intracellular amastigote assay in infected murine macrophages. The class given is cell-based. As for the experimental part: Bone-marrow-derived macrophages (BALB/c) were cultured with L-cell-conditioned medium for 5-7 days at 35° C. After this period of incubation, mature macrophages were transferred to Labtek 4-chamber slides containing DMEM (Dulbecco's Modified Eagle's Medium) and 10% fetal calf serum. 50,000 cells were seeded in each chamber and allowed to attach overnight at 37° C. in a humidified incubator flushed with 5% CO2. On the next day the macrophages were infected at an MOI (Multiplicity of Infection) of 10:1 with stationary promastigotes of L. mexicana. After twenty-four hours, the medium was removed and fresh medium was added containing various drug concentrations (0-5 μM). Following incubation for an additional forty-eight hours, one set of slides were fixed in methanol, dried, and stained with Giemsa stain. Fresh medium and drug were added to a parallel set of chamber slides and incubated for another 48 hours before staining. […] Microscopic inspection permitted determination of % of infected macrophages and the number of amastigotes per 100 macrophages. The IC50 value is that concentration of drug that reduces the amastigote number by 50% relative to drug-free controls. Results also were obtained in parallel fashion with macrophages.
Intracellular amastigote studies. […] Because the amastigote stage is the only relevant clinical form of the parasites, we examined the activity of the nitrogenated xanthones against the heme-auxotrophic, intracellular amastigote form of L. mexicana. Stationary promastigotes of L. mexicana M379 rapidly invaded murine peritoneal macrophages obtained from BALB/c mice and incubated at 35° C. producing heavily burdened cells with 10 to 50 amastigotes per macrophage within 24 hours. An experiment was performed to investigate the ability of selected xanthones to reduce the number of intracellular amastigotes using this model. The IC50 value is that concentration of drug required to reduce the intracellular parasite burden by 50% relative to a drug-free control chamber. We tested the xanthone series against amastigote-infected murine peritoneal macrophages. Macrophages were seeded into Labtek chamber slides (25,000 per well/8 chamber slide) and allowed to incubate overnight in Dulbecco's Modified Eagle Medium (DMEM) supplemental with 10% fetal calf serum. On the next day the cells were infected with L. mexicana promastigotes at an MOI of 5:1 and then incubated for 24 hours at 35° C. After incubation, the monolayers were washed with buffer and medium containing varying concentrations of each xanthone (0 to 10 μM) was added to each chamber. After 48 hours of incubation (i.e., Day 3 of the experiment) one set of slides was removed, fixed with methanol, and stained with Giemsa. For another set of slides, we replenished the culture medium, added fresh drug to each well as appropriate, and then incubated the chambers for another 48 hours before staining with Giemsa. IC50 values were then averaged for 3 separate experiments and the results are presented in Table 4 and graphically in FIG. 7. […] The IC50 values recorded for C5 and C6 exposure for 96 hours of treatment were 6 nM and 2 nM.

In the next assay the test system is P. falciparum W2 strain. Put plainly: antimalarial activity against multidrug resistant W2 strain. The class given is cell-based, Plasmodium falciparum. How it is done: A decision was made to retain the oxygen atom (a conjugatively electron-donating species) as a bridge for an R-group containing the protonatable nitrogen. […] For comparative purposes, the straight-chain di-substituted series from C2 to C8 (i.e., excepting C7), each with a terminal diethylamino group was prepared. Shown in Table 4 is the remarkable relationship between chain length and antimalarial activity within the series . . . and the extraordinary potency of the C5 (3,6-bis-ω-diethylaminoamyloxyxanthone) and C6 (3,6-bis-ω-diethylaminohexyloxyxanthone) congeners.

[4] abbreviates: Table 3, 25 μM heme, pH 5.2, 37° C., 2 hours, average of at least two determinations, read-out: IC50, μM in vitro heme polymerization.
Setting [5] is: Plasmodium falciparum, D6, Table 3, read-out: IC50 μM, P. falciparum clone D6.
The mark [6] stands for this setting: Plasmodium falciparum, D6, read-out: IC50 μM, P. falciparum clone D6.
[7] abbreviates: Plasmodium falciparum, D6, Table 4, average of 2 experiments in triplicate, 72 hour assay, read-out: IC50 μM* P. falciparum D6.
The mark [8] stands for this setting: 96 hours of treatment, peritoneal macrophages, read-out: IC50, L. mexicana amastigotes.
Where [9] appears, read: Table 4, 48 hours of drug exposure, reduction of amastigote burden by 50%, read-out: IC50 μM** L. mexicana.
[10] abbreviates: P. falciparum D6, read-out: IC50, anti-malarial activity.
Where [11] appears, read: Table 4, average of 2 experiments in triplicate, 72 hour assay, read-out: IC50 μM* P. falciparum D6.
[12] abbreviates: Leishmania mexicana, Macrophage, 48 h, read-out: IC50 μM** L. mexicana.

Structures are written as SMILES. Converted amounts (≈) assume the structure as drawn. Like-named read-outs stand apart in the source and are kept apart here.

Turning to `CCN(CC)CCCCCOc1cccc2c(=O)c3cccc(OCCCCCN(CC)CC)c3oc12`, the 50% inhibitory concentration (IC50) – broadly, the point on the concentration scale where inhibition reaches its midpoint – in assay [1] (Plasmodium falciparum, D6, Table 4, cells printed in nM, 72 hour assay, read-out: IC50 μM* P. falciparum D6) turned out to be 575 nM.
Take `O=c1c2cc(O)c(O)c(O)c2oc2cc(O)cc(O)c12` [1,3,5,6,7-pentahydroxyxanthone]: the IC50 in assay [2] (setting [4]) came to 9 µM; in assay [1] (setting [5]), 1000 nM.
For `O=c1c2ccccc2oc2cc(O)cc(O)c12` [1,3-dihydroxyxanthone], in that order: > 1000 µM and 75000 nM.
Turning to `O=c1c2cc(O)c(O)c(O)c2oc2c(O)c(O)c(O)cc12` [2,3,4,5,6,7-hexahydroxyxanthone], the IC50 in assay [2] (setting [4]) was 1.4 µM; with Candida albicans, ~10 µg/mL (≈ 34.2 µM); in assay [1] (setting [5]), 100 nM.
With `CC(=O)Oc1cc2c(=O)c3ccc(OC(C)=O)c(OC(C)=O)c3oc2c(OC(C)=O)c1OC(C)=O` [2,3,4,5,6-pentaacetoxyxanthone], the results for the 50% inhibitory concentration (IC50) in assay [2] (setting [4]) and in assay [1] (setting [5]) were > 1000 µM and 75 nM, respectively. For the same compound, in assay [2], the “inhibitory activity in heme polymerization assay” value (“inhibitory activity” for short) was “inactive”.
Regarding `COc1cc2c(=O)c3ccc(OC)c(OC)c3oc2c(OC)c1OC` [2,3,4,5,6-pentamethoxyxanthone], the figures for the IC50 in assay [2] (setting [4]) and in assay [1] (setting [5]) were > 1000 µM and > 100000 nM, respectively. The “inhibitory activity” value in assay [2] was “inactive”.
Turning to `O=c1c2ccccc2oc2c(O)c(O)c(O)cc12` [2,3,4-trihydroxyxanthone], the IC50 stood at 17 µM in assay [2] (setting [4]); 16.5 µM in assay [2] (text b143, read-out: IC50, inhibition of heme polymerization); 40000 nM in assay [1] (setting [5]).
As for `O=c1c2ccccc2oc2ccc(O)cc12` [2-hydroxyxanthone], the IC50 in assay [2] (setting [4]) is > 1000 µM; in assay [1] (setting [6]), 50000 nM.
For the compound `O=c1c2ccc(O)c(O)c2oc2c(O)c(O)ccc12` [3,4,5,6-tetrahydroxyxanthone], the values for the concentration for half-maximal inhibition (IC50) in assay [2] (setting [4]) and in assay [1] (setting [5]) were 2.5 µM and 5000 nM, respectively.
Consider `O=c1c2ccc(O)cc2oc2cc(O)ccc12` [3,6-dihydroxyxanthone], for which the concentration for half-maximal inhibition (IC50) in assay [2] (setting [4]) was > 500 µM; in assay [1] (setting [6]) it was > 100000 nM.
For the compound `CCN(CC)CCCCCOc1ccc2c(=O)c3ccccc3oc2c1` [3-(N,N-diethylamino)amyloxy-xanthone], the IC50 in assay [1] (setting [7]) worked out at 2500 nM.
Consider `O=c1c2ccccc2oc2cc(O)ccc12` [3-hydroxyxanthone], for which the half-maximal inhibitory concentration (IC50) is > 1000 µM in assay [2] (setting [4]) and > 100000 nM in assay [1] (setting [6]).
On to `O=c1c2cccc(O)c2oc2c(O)cccc12` [4,5-dihydroxyxanthone], for which the IC50 was 14 µM in assay [2] (setting [4]) and 16000 nM in assay [1] (setting [5]).
Consider `CCN(CC)CCCCCOc1ccc2c(=O)c3ccc(OCCCCCN(CC)CC)cc3oc2c1` [36-DEAAmyl-X, 3,6-bis-ε-(N,N-diethylamino)-amyloxy-xanthone], for which the IC50 in assay [3] (setting [8]) was 0.006 µM; in assay [3] (setting [9]) it was 0.06 µM; in assay [1] (setting [10]), ~100 nM; in assay [1] (setting [11]), 100 nM. Besides, the “degree of potency against W2 compared with D6” value with P. falciparum W2 strain is listed as “the same”.
With `CCN(CC)CCCCOc1ccc2c(=O)c3ccc(OCCCCN(CC)CC)cc3oc2c1` [36-DEAB-X, 3,6-bis-δ-(N,N-diethylamino)butoxy-xanthone], the results for the half-inhibitory concentration (IC50) in assay [3] (setting [12]) and in assay [1] (setting [7]) were 0.2 µM and 650 nM, respectively.
For `CCN(CC)CCOc1ccc2c(=O)c3ccc(OCCN(CC)CC)cc3oc2c1` [36-DEAE-X, 3,6-bis-β-(N,N-diethylamino)ethoxy-xanthone], in that order: ~1.25 µM and 2200 nM.
In the case of `CCN(CC)CCCCCCOc1ccc2c(=O)c3ccc(OCCCCCCN(CC)CC)cc3oc2c1` [36-DEAHexyl-X, 3,6-bis-(N,N-diethylamino)-hexyloxy-xanthone], the IC50 is 0.002 µM in assay [3] (setting [8]), 0.02 µM in assay [3] (setting [9]), ~100 nM in assay [1] (setting [10]) and 75 nM in assay [1] (setting [11]). Moreover, the “degree of potency against W2 compared with D6” value in the assay on P. falciparum W2 strain is given as “the same”.
Regarding `CCN(CC)CCCCCCCCOc1ccc2c(=O)c3ccc(OCCCCCCCCN(CC)CC)cc3oc2c1` [36-DEAOctyloxy-X, 3,6-bis-(N,N-diethylamino)octyloxy-xanthone], the concentration for half-maximal inhibition (IC50) in assay [1] (setting [11]) was determined as 430 nM.
Consider `CCN(CC)CCCOc1ccc2c(=O)c3ccc(OCCCN(CC)CC)cc3oc2c1` [36-DEAP-X, 3,6-bis-γ-(N,N-diethylamino)propoxy-xanthone], for which the half-maximal inhibitory concentration (IC50) in assay [3] (setting [12]) was determined as 0.5 µM; in assay [1] (setting [7]), 1500 nM.
As to `CCN(CC)c1ccc2c(=O)c3ccc(N(CC)CC)cc3oc2c1` [36-DEAX, 3,6-bis-N,N-diethylamino-xanthone], the IC50 in assay [1] (setting [7]) was 20000 nM; in assay [1] (Plasmodium falciparum, P. falciparum D6, read-out: IC50, anti-malarial activity) it was ~20000 nM.
Regarding `CCN(CC)CCOc1cccc2c(=O)c3cccc(OCCN(CC)CC)c3oc12` [45-DEAE-X, 4,5-bis-β-(N,N-diethylamino)ethoxy-xanthone], the IC50 in assay [1] (setting [7]) was 2800 nM.
With `CCN(CC)CCCC(C)Nc1ccnc2cc(Cl)ccc12` (stereo not drawn) [Chloroquine, reference compound], the half-maximal inhibitory concentration (IC50) in assay [1] (Plasmodium falciparum, D6, read-out: IC50, anti-malarial activity) is ~40 nM.
Turning to `O=c1c2ccccc2oc2ccccc12` [Xanthone], the “inhibitory activity” value in assay [2] is listed as “did not exhibit any inhibitory activity”. In addition, the IC50 in assay [1] (Plasmodium falciparum, D6, read-out: IC50, μM vs. Plasmodium) is > 10000 nM.

Values taken from US6613797B2, “Xanthone analogs for treating infectious diseases and complexation of heme and porphyrins” (Interlab, Inc., priority 1999, dated 2003).
